Results as given in ChEMBL document CHEMBL1157586 (Bioorg Med Chem, 2010).
In brackets after ≈: the same amount, converted by molar mass.

Tests used:
[1] = tested on: A2780; experiment: Antiproliferative activity against human A2780 cells after 72 hrs by CellTiter-Glo luminescence assay; conditions: A2780, 72 h
[2] = Solubility at pH 7; assay type: physicochemical; conditions: buffer
[3] = target: Cyclin-dependent kinase 2/cyclin A (Homo sapiens, UniProt P24941); experiment: Inhibition of human CDK2/cyclin A expressed in Escherichia coli BL21 by scintillation proximity assay

| SMILES | IC50 [1] [nM] | solubility [2] [µM] | IC50 [3] [nM] |
| --- | --- | --- | --- |
| CN1CCC(C(=O)N2Cc3c(NC(=O)Nc4cccc(F)c4)n[nH]c3C2(C)C)CC1 | 350 | > 225 | 10 |
| OC[C@H]1O[C@H](OC[C@H]2O[C@@H](O[C@]3(CO)O[C@H](CO)[C@@H](O)[C@@H]3O)[C@H](O)[C@@H](O)[C@@H]2O)[C@H](O)[C@@H](O)[C@H]1O.OC[C@H]1O[C@H](OC[C@H]2O[C@H](O[C@]3(CO)O[C@H](CO)[C@@H](O)[C@@H]3O)[C@H](O)[C@@H](O)[C@@H]2O)[C@H](O)[C@@H](O)[C@H]1O | 60 | 200 | 16 |
| CN1CCC(C(=O)N2Cc3c(NC(=O)c4ccc(F)c(F)c4)n[nH]c3C2(C)C)CC1 | 100 | > 225 | 14 |
| CC(C)(C)C(=O)N1Cc2c(NC(=O)c3ccc(F)cc3)n[nH]c2C1(C)C | 270 | 235 (≈ 84.2 µg/mL) | – |
| CN1CCC(C(=O)N2Cc3c(NC(=O)c4cc(F)cc(F)c4)n[nH]c3C2(C)C)CC1 | 130 | > 225 | 16 |
| CN1CCC(C(=O)N2Cc3c(NC(=O)c4cccs4)n[nH]c3C2(C)C)CC1 | 30 | 155 (≈ 60.1 µg/mL) | 10 |
| CC1(C)c2[nH]nc(NC(=O)c3ccc(F)cc3)c2CN1C(=O)C1CCN(C2CC2)CC1 | 380 | > 225 | 68 |
| CC1(C)c2[nH]nc(NC(=O)c3ccc(F)cc3)c2CN1C(=O)N1CCN(CCO)CC1 | > 5000 | > 225 | 60 |
| CC(C)(C)C(=O)N1Cc2c(NC(=O)c3ccncc3)n[nH]c2C1(C)C | 110 | 205 (≈ 70 µg/mL) | 49 |
| CCCNC(=O)Nc1n[nH]c2c1CN(C(=O)C1CCN(C)CC1)C2(C)C | 650 | > 225 | 11 |
| CN1CCC(C(=O)N2Cc3c(NC(=O)c4ccncc4)n[nH]c3C2(C)C)CC1 | 500 | > 225 | 25 |
| CN1CCC(C(=O)N2Cc3c(NC(=O)c4ccsc4)n[nH]c3C2(C)C)CC1 | 140 | > 225 | 5 |
| CN1CCC(C(=O)N2Cc3c(NC(=O)c4cccc(F)c4)n[nH]c3C2(C)C)CC1 | 200 | > 225 | 14 |
| CC(=O)N1CCC(C(=O)N2Cc3c(NC(=O)c4ccc(F)cc4)n[nH]c3C2(C)C)CC1 | > 10000 | 204 (≈ 87.2 µg/mL) | 4800 |
| CC(C)CC(=O)Nc1n[nH]c2c1CN(C(=O)C1CCN(C3CC3)CC1)C2(C)C | 320 | > 225 | 24 |
| CN1CCC(C(=O)N2Cc3c(NC(=O)c4ccc(F)cc4)n[nH]c3C2(C)C)CC1 | 120 | > 225 | 23 |
| CC1(C)c2[nH]nc(NC(=O)c3ccc(F)cc3)c2CN1C(=O)C1CCNCC1 | 650 | 204 (≈ 78.6 µg/mL) | 30 |

| SMILES | IC50 [1] [nM] | solubility [2] [µM] | IC50 [3] [nM] |
| --- | --- | --- | --- |
| CN1CCC(C(=O)N2Cc3c(NC(=O)C4CC4)n[nH]c3C2(C)C)CC1 | 1420 | > 225 | 15 |
| CN(C)CC(=O)Nc1n[nH]c2c1CN(C(=O)C(C)(C)C)C2(C)C | 580 | > 225 | 77 |
| CN1CCC(C(=O)N2Cc3c(NC(=O)c4ccc(C(F)(F)F)cc4)n[nH]c3C2(C)C)CC1 | 60 | 191 (≈ 85.9 µg/mL) | 26 |
| CC(C)(C)C(=O)N1Cc2c(NC(=O)c3cccnc3)n[nH]c2C1(C)C | 690 | 207 (≈ 70.7 µg/mL) | 50 |
| CN1CCC(C(=O)N2Cc3c(NC(=O)c4ccc(Cl)cc4)n[nH]c3C2(C)C)CC1 | 120 | > 225 | 15 |
| CN1CCC(C(=O)N2Cc3c(NC(=O)c4ccco4)n[nH]c3C2(C)C)CC1 | > 5000 | > 225 | 33 |
| CN1CCN(C(=O)N2Cc3c(NC(=O)c4ccc(F)cc4)n[nH]c3C2(C)C)CC1 | 180 | > 225 | 46 |
| CN1CCC(C(=O)N2Cc3c(NC(=O)c4ccccc4)n[nH]c3C2(C)C)CC1 | 160 | > 225 | 23 |
| CCN1CCC(C(=O)N2Cc3c(NC(=O)CC(C)C)n[nH]c3C2(C)C)CC1 | 410 | > 225 | 14 |
| CCN1CCC(C(=O)N2Cc3c(NC(=O)c4ccc(F)cc4)n[nH]c3C2(C)C)CC1 | 290 | > 225 | 30 |
| CC(C)(C)C(=O)N1Cc2c(NC(=O)C3CCNCC3)n[nH]c2C1(C)C | 650 | > 225 | 169 |
| CC(=O)N1CCN(C(=O)N2Cc3c(NC(=O)c4ccc(F)cc4)n[nH]c3C2(C)C)CC1 | > 10000 | > 225 | 540 |
| CC1(C)c2[nH]nc(NC(=O)c3ccc(F)cc3)c2CN1C(=O)N1CCN(c2ccccc2)CC1 | – | 55 (≈ 25.4 µg/mL) | 3500 |
| CN1CCC(C(=O)N2Cc3c(NC(=O)C4CCC4)n[nH]c3C2(C)C)CC1 | 140 | > 225 | 9 |
| CN1CCC(C(=O)Nc2n[nH]c3c2CN(C(=O)C(C)(C)C)C3(C)C)CC1 | 350 | > 225 | 214 |
| CN1CCC(C(=O)N2Cc3c(NC(=O)NCc4ccccc4)n[nH]c3C2(C)C)CC1 | 2680 | > 225 | 21 |
| CN1CCC(C(=O)N2Cc3c(NC(=O)c4ccc5ccccc5c4)n[nH]c3C2(C)C)CC1 | 270 | 219 (≈ 94.5 µg/mL) | 27 |
